Measured values from ChEMBL document CHEMBL1135986, “Corrigendum to Synthesis and anti-angiogenic activity of 6-(1,2,4-thiadiazol-5-yl)-3-amino pyridazine derivatives [Bioorg. Med. Chem. Lett. 12 (2002) 589]” (Bioorg Med Chem Lett, 2002).

Assays:
Mus musculus = assay: In vivo percentage inhibition of 3LL Lewis Lung tumor mets formation were measured after oral dosing b.i.d. for 28 days to B6D2F1 mice at a dose of 15 mg/kg b.i.d; assay type: functional; settings: 672 h
[1] = Ocular toxicity was assessed after oral dosing at 40 mg/Kg b.i.d. for 4 days in male Wistar rats; No; settings: rat, in vivo, 96 h
[2] = Ocular toxicity was assessed after oral dosing at 40 mg/Kg b.i.d. for 4 days in male Wistar rats; Yes; settings: rat, in vivo, 96 h
[3] = Ocular toxicity was assessed after oral dosing at 40 mg/Kg b.i.d. for 4 days in male Wistar rats; Very weak; settings: rat, in vivo, 96 h

CN(C)c1nsc(-c2ccc(N3CCN(c4cc(C(F)(F)F)cc(C(F)(F)F)c4)CC3)nn2)n1
inhibition in vivo at 15 mg/kg (Mus musculus): 13%
Eye toxicity [1]: No toxicity

FC(F)(F)c1cccc(NC2CCN(c3ccc(-c4ncns4)nn3)CC2)c1
inhibition in vivo at 15 mg/kg (Mus musculus): 42%
Eye toxicity [1]: No toxicity

FC(F)(F)c1cc(N2CCN(c3ccc(-c4ncns4)nn3)CC2)cc(C(F)(F)F)c1
inhibition in vivo at 15 mg/kg (Mus musculus): 24%
Eye toxicity [1]: No toxicity

Cc1nsc(-c2ccc(N3CCN(c4cc(Cl)cc(Cl)c4)CC3)nn2)n1
Eye toxicity [2]: Yes

Cc1nsc(-c2nccc(N3CCN(c4cccc(C(F)(F)F)c4)CC3)n2)n1
Eye toxicity [1]: No toxicity

Cc1nsc(-c2ccc(N3CCN(c4cccc(Cl)c4)CC3)nn2)n1
Eye toxicity [2]: Yes

Nc1nsc(-c2ccc(N3CCN(c4cccc(C(F)(F)F)c4)CC3)nn2)n1
Eye toxicity [1]: No toxicity

Cc1nsc(-c2ccc(N3CCN(c4cccc(C(F)(F)F)c4)CC3)cc2)n1
Eye toxicity [1]: No toxicity

FC(F)(F)c1cccc(N2CCN(C3CCN(c4ccc(-c5ncns5)nn4)CC3)CC2)c1
inhibition in vivo at 15 mg/kg (Mus musculus): 54%
Eye toxicity [1]: No toxicity

Cc1nsc(-c2ccc(N3CCN(c4cccc(C(F)(F)F)c4)CC3)nn2)n1
Eye toxicity [2]: Toxicity

FC(F)(F)c1cccc(N2CCN(c3ccc(-c4ncns4)nn3)CC2)c1
Eye toxicity [1]: No toxicity

CN(C)c1nsc(-c2ccc(N3CCC(N4CCN(c5cccc(C(F)(F)F)c5)CC4)CC3)nn2)n1
inhibition in vivo at 15 mg/kg (Mus musculus): 25%
Eye toxicity [3]: Very weak toxicity

CNc1nsc(-c2ccc(N3CCN(c4cccc(C(F)(F)F)c4)CC3)nn2)n1
Eye toxicity [1]: No toxicity

Cc1nsc(-c2ccc(N3CCN(c4cccc([N+](=O)[O-])c4)CC3)nn2)n1
Eye toxicity [2]: Yes

Cc1nsc(-c2ccc(N3CCN(c4ccccc4C(F)(F)F)CC3)nn2)n1
Eye toxicity [2]: Yes

CCc1nsc(-c2ccc(N3CCN(c4cccc(C(F)(F)F)c4)CC3)nn2)n1
Eye toxicity [1]: No toxicity

Cc1nsc(-c2ccc(N3CCN(c4cc(C(F)(F)F)cc(C(F)(F)F)c4)CC3)nn2)n1
Eye toxicity [2]: Yes

CN(C)c1nsc(-c2ccc(N3CCN(c4cccc(C(F)(F)F)c4)CC3)nn2)n1
inhibition in vivo at 15 mg/kg (Mus musculus): 39%
Eye toxicity [1]: No toxicity

Cc1nsc(-c2ccc(N3CCN(c4cccc(C(F)(F)F)c4)CC3)nc2)n1
Eye toxicity [1]: No toxicity
